# Test results as given in article PMC11784839, “Monoaminergic neurotransmitters are bimodal effectors of tau aggregation” (Science Advances, 2025).
# Target: tau (Homo sapiens, UniProt P10636)
# Test: MCE Phenols Library screening, tau biosensor cell seeding assay (AvZ)
# Type: cell-based
# Conditions: for AvZ (average z score of seeding, SDs from the mean level of seeding): 10 μM phenol in cell cultures, AD brain homogenate preincubated 16 hours, two biological replicates, positive = catalyzes seeding, negative = inhibits; for Z repl 1 / Z Repl 2: Z score; for Z repl 1 / raw data 1: replicate 1; for Z Repl 2 / raw data 2: replicate 2
# [1] = average puncta of the two replicates
# [2] = average Z score of the two replicates, tau seeding
# [3] = average Z score of the two replicates, MCE Phenols Library screen
# [4] = average Z score of the two replicates, tau biosensor seeding, MCE Phenols Library screen
# [5] = average Z score of two replicates, Phenols Library screen
# tau, sequence (P10636 623-695 limits assumed): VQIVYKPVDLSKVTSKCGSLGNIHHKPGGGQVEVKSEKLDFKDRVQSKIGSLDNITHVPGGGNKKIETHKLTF
SMILES,"AvZ (average z score of seeding, SDs from the mean level of seeding)",Z repl 1,Z Repl 2,av puncta (average of raw data 1 and 2),raw data 1 (puncta),raw data 2 (puncta),av puncta [1],av Z [2],av Z [3],av Z [4],av Z [5],raw data 1 (raw puncta),raw data 2 (raw puncta),"AvZ (average z score of seeding, SDs from the mean level of seeding) (listed as 6-Hydroxy melatonin)"
CC(=O)c1ccc(O)cc1C [4?-Hydroxy-2?-methylacetophenone],0.123,0.511,-0.266,21207.9,32488.1,9927.81,,,,,,,,
"O=c1ccoc2cc(O)cc(O)c12 [5,7-Dihydroxychromone]",,-1.184,-0.309,,12131.6,9469.43,10800.5,,-0.746,,,,,
COc1ccc(-c2cc(=O)c3c(O)c(OC)c(OC)cc3o2)cc1OC [5-Desmethylsinensetin],,0.14,-0.394,18294,28033.5,8554.47,,,,,-0.127,,,
O=c1cc(-c2ccccc2)oc2cccc(O)c12 [5-Hydroxyflavone],,-1.378,-0.72,7440.82,9800.36,5081.28,,,-1.049,,,,,
CCCCC[C@H](O)CC(=O)CCc1ccc(O)c(OC)c1 [6-Gingerol],0.629,,,,,,,,,,,,,
"O=c1cc(-c2ccc(O)cc2)oc2cc(O)ccc12 [7,4'-Dihydroxyflavone]",,0.712,-0.135,23112.9,34900.1,11325.8,,0.289,,,,,,
O=c1ccoc2cc(O)ccc12 [7-Hydroxy-4H-chromen-4-one],,-0.015,-0.619,,,,16165.1,,-0.317,,,26174.7,6155.6,
CC(C)=CCc1c(O)c(CC=C(C)C)c2oc3c(O)cccc3c(=O)c2c1O [8-Deoxygartanin],,-0.784,-0.654,,16933.5,5782.42,11358,,-0.719,,,,,
COc1c2ccoc2c(O)c2oc(=O)ccc12 [8-Hydroxybergapten],,-0.103,0.252,20281.2,25106.7,15455.8,,,,,0.074,,,
C=C(C)[C@H](CC=C(C)C)Cc1c(O)cc(OC)c2c1O[C@H](c1ccc(O)cc1OC)CC2=O [(2S)-2'-Methoxykurarinone],,0.362,0.799,25999.8,30700.9,21298.7,,0.581,,,,,,
CC(C)=CCc1c(O)cc2c(c1O)C(=O)C[C@@H](c1ccc(O)cc1)O2 [(2S)-6-Prenylnaringenin],,0.006,0.268,21024,26415.8,15632.3,,0.137,,,,,,
Oc1cc(O)c2c(c1)O[C@H](c1cc(O)c(O)c(O)c1)[C@@H](O)C2 [(+)-Gallocatechin],,-0.679,-1.082,9700.21,18193.2,1207.17,,,-0.881,,,,,
Oc1ccc([C@H]2COc3cc(O)ccc3C2)cc1 [(-)-(S)-Equol],,0.447,-0.597,19047.3,31709.7,6384.95,,,,,-0.075,,,
Oc1ccc([C@H]2Oc3cc(O)cc(O)c3C[C@H]2O)cc1 [(-)-Epiafzelechin],,-0.198,0.182,19340.4,23970.4,14710.3,,,,,-0.008,,,

# Now from value to compound:
"AvZ (average z score of seeding, SDs from the mean level of seeding)",Z repl 1,Z Repl 2,av puncta (average of raw data 1 and 2),raw data 1 (puncta),raw data 2 (puncta),av puncta [1],av Z [2],av Z [3],av Z [4],av Z [5],raw data 1 (raw puncta),raw data 2 (raw puncta),"AvZ (average z score of seeding, SDs from the mean level of seeding) (listed as 6-Hydroxy melatonin)",SMILES
-0.59,-0.206,-0.973,,23871.3,2376.21,13123.8,,,,,,,,"Oc1cc2cc[nH]c2cc1O [5,6-Dihydroxyindole]"
,0.623,-0.301,21685.4,33822.8,9548.03,,0.161,,,,,,,"Cc1cc(=O)oc2cc(O)cc(O)c12 [5,7-Dihydroxy-4-methylcoumarin]"
,1.798,1.915,40573.2,47932.5,33213.9,,,,1.856,,,,,"COc1cc(OC)c2c(=O)cc(-c3ccc(O)c(O)c3)oc2c1 [5,7-Dimethoxyluteolin]"
-0.176,-0.552,0.2,17310.9,19721.7,14900.2,,,,,,,,,"Nc1ccc(O)c(C(=O)O)c1 [5-Aminosalicylic Acid, reference compound]"
-0.968,-0.814,-1.121,8685.03,16579.9,790.19,,,,,,,,,COc1cc(/C=C/C(=O)O)cc(O)c1O [5-Hydroxyferulic acid]
-0.616,-0.683,-0.549,,18144.2,6901.21,12522.7,,,,,,,,Oc1ccc2[nH]ccc2c1 [5-Hydroxyindole]
0.136,-0.389,0.66,20749.6,21680.5,19818.6,,,,,,,,,COc1ccc(O)c(C(=O)O)c1 [5-Methoxysalicylic acid]
,-0.368,-0.234,,,,16095.7,,-0.301,,,21928.1,10263.4,,COc1cc2c(=O)c(-c3ccc(O)cc3)coc2cc1O[C@@H]1O[C@H](COC(C)=O)[C@@H](O)[C@H](O)[C@H]1O [6''-O-Acetylglycitin]
,-0.422,0.434,19344,21288.5,17399.5,,,,,0.006,,,,O=c1ccc2cc(O)ccc2o1 [6-Hydroxycoumarin]
,-0.171,-0.979,,24297.8,2305.25,13301.5,,-0.575,,,,,,O=c1cc(-c2ccc(O)c(O)c2)oc2cc(O[C@@H]3O[C@H](CO)[C@@H](O)[C@H](O)[C@H]3O)c(O)c(O)c12 [6-Hydroxyluteolin 7-glucoside]
-0.003,0.345,-0.35,19759.2,30495.8,9022.73,,,,,,,,−0.003,COc1cc2c(CCNC(C)=O)c[nH]c2cc1O [6-Hydroxymelatonin]
,0.072,-0.073,19598.9,27207.6,11990.2,,,,,-0.001,,,,"COc1ccc(-c2cc(=O)c3c(O)cc(OC)cc3o2)cc1 [7,4'-Di-O-methylapigenin]"
,1.412,0.928,32989.2,43302.3,22676,,,,1.17,,,,,"O=c1cc(-c2ccccc2)oc2c(O)c(O)ccc12 [7,8-Dihydroxyflavone]"
-0.236,0.065,-0.537,,,,17076,,,,,27124.2,7027.77,,CCCCCCC[C@H](O)CC(=O)CCc1ccc(O)c(OC)c1 [8-Gingerol]
-0.619,-0.921,-0.318,,15293.5,9373.24,12333.4,,,,,,,,CCCCCCCCC[C@H](O)CC(=O)CCc1ccc(O)c(OC)c1 [10-Gingerol]
-0.507,,,,,,,,,,,,,,CCCCCCCCC/C=C/C(=O)CCc1ccc(O)c(OC)c1 [10-Shogaol]
,0.313,1.018,26875.3,30111.3,23639.2,,0.666,,,,,,,COc1cc(C[C@@H](CO)[C@H](CO)Cc2ccc(O)c(OC)c2)ccc1O [(+)-Secoisolariciresinol]
,-0.615,-1.07,10148.5,18961.3,1335.66,,,-0.843,,,,,,O=C(O[C@@H]1Cc2c(O)cc(O)cc2O[C@H]1c1ccc(O)c(O)c1)c1cc(O)c(O)c(O)c1 [(-)-Catechin gallate]
,-1.161,-0.434,10272.2,12408.5,8135.9,,,-0.797,,,,,,O=C(O[C@@H]1Cc2c(O)cc(O)cc2O[C@@H]1c1ccc(O)c(O)c1)c1cc(O)c(O)c(O)c1 [(-)-Epicatechin gallate]
,-2.044,,1025.27,1812.01,238.519,,,-1.608,,,,,,O=C(O[C@@H]1Cc2c(O)cc(O)cc2O[C@@H]1c1cc(O)c(O)c(O)c1)c1cc(O)c(O)c(O)c1 [(-)-Epigallocatechin Gallate]
